From patent publication US12384800B2, “Antitumoral compounds” (priority 2017, dated 2025)

Experiments:
[1] = MTMD (Maximum Tolerated Multiple Dose) determination, iv weekly x 3; assay type: in vivo; details: mice; iv/Q7d × 3
Method in brief: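 Female CD-1 or athymic nude mice received compound in formulation iv at different concentrations, once for MTD or weekly for three consecutive weeks for MTMD, with vehicle groups included. Clinical signs of systemic toxicity, body weight and mortality were followed up to 14 days after administration.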

HT1080 tumors = details: Day 0
Experimental: Female athymic nu/nu mice (Harlan Laboratories Models, S.L. Barcelona, Spain or Envigo, Spain) were utilized for all experiments. Animal were housed in individually ventilated cages Sealsafe® Plus, Techniplast S.P.A.), up to ten per cage on a 12-hour light-dark cycle at 21-23° C. and 40-60% humidity. […] Animals were acclimated for at least 5 days prior to tumor implantation with a tumor cell suspension.
HT1080 cells were maintained in vitro at 37° C. with 5% CO2 in Minimum Essential Medium Eagle (MEME) (Sigma-Aldrich, Co). Each animal was orthotopically implanted into gastroecnemius muscle by an intramuscular injection using a 26G needle and a 1 cc syringe at 4-6 weeks of age, with 10×10^6 HT1080 cells, suspended in serum free medium, without antibiotics.
Treatment tolerability was assessed by monitoring body weight evolution, clinical signs of systemic toxicity, as well as evidences of local damage in the injection site.
In xenograft studies with HT1080 cell line: • Total diameter (tumor+leg) measurements were determined by using digital caliper (Fowler Sylvac, S235PAT).
Treatments producing >20% lethality and/or 20% net body weight loss were considered toxic.

Q: What does the source list for `COc1c(C)cc2c(c1O)[C@@H]1[C@@H]3[C@@H]4SC[C@]5(NCCc6c5oc5ccccc65)C(=O)OC[C@@H](c5c6c(c(C)c(OC(C)=O)c54)OCO6)N3[C@@H](O)[C@H](C2)N1C` [Compound 32]?
A: MTMD [1]: 0.5 mg/kg; Total diameter (tumor + leg) (HT1080 tumors): 7.5 mm
